In brackets after ≈: the same amount, converted by molar mass.
Tests used:
Assay in all cases: In vitro antibacterial activity, agar dilution MIC
Type in all cases: cell-based
Candida albicans CCH 442 = Candida albicans CCH 442 (organism code TT); BHI agar, 35-37 °C, 20 to 24 hours; unit assumed
Method: (§1) Representative compounds of the present invention were assayed in vitro for antibacterial activity as follows: Twelve petri dishes containing successive aqueous dilutions of the test compound mixed with 10 mL of sterilized Brain Heart infusion (BHI) agar (Difco 0418-01-5) were prepared. Each plate was inoculated with 1:100 (or 1:10 for slow-growing strains, such as Micrococcus and Streptococcus) dilutions of up to 32 different microorganisms, using a Steers replicator block. […] In addition, a control plate, using BHI agar containing no test compound, was prepared and incubated at the beginning and end of each test.
(§2) An additional plate containing a compound having known susceptibility patterns for the organisms being tested and belonging to the same antibiotic class as the test compound was also prepared and incubated as a further control, as well as to provide test-to-test comparability.
(§3) After incubation, each plate was visually inspected. The minimum inhibitory concentration (MIC) was defined as the lowest concentration of drug yielding no growth, a slight haze, or sparsely isolated colonies on the inoculum spot as compared to the growth control.

[1] = tested on: Staphylococcus aureus CMX 553; conditions: Staphylococcus aureus CMX 553 (organism code FF); BHI agar, 35-37 °C, 20 to 24 hours; unit assumed
Method: as §1, §2, §3

[2] = tested on: Streptococcus pyogenes EES61; conditions: Streptococcus pyogenes EES61 (organism code LL); BHI agar, 35-37 °C, 20 to 24 hours; unit assumed
Method: as §1, §2, §3

[3] = tested on: Haemophilis Influenzae DILL AMP R; conditions: Haemophilis Influenzae DILL AMP R (organism code WW); BHI agar, 35-37 °C, 20 to 24 hours; unit assumed
Method: as §1, §2, §3

[4] = tested on: Staphylococcus aureus A5177; conditions: Staphylococcus aureus A5177 (organism code BB); BHI agar, 35-37 °C, 20 to 24 hours; unit assumed
Method: as §1, §2, §3

Escherichia coli SS = Escherichia coli SS (organism code RR); BHI agar, 35-37 °C, 20 to 24 hours; unit assumed
Method: as §1, §2, §3

[5] = tested on: Micrococcus luteus ATCC 9341; conditions: Micrococcus luteus ATCC 9341 (organism code OO); BHI agar, 35-37 °C, 20 to 24 hours; unit assumed
Method: as §1, §2, §3

[6] = tested on: Enterococcus faecium ATCC 8043; conditions: Enterococcus faecium ATCC 8043 (organism code II); BHI agar, 35-37 °C, 20 to 24 hours; unit assumed
Method: as §1, §2, §3

[7] = tested on: Staphylococcus aureus ATCC 6538P; conditions: Staphylococcus aureus ATCC 6538P (organism code AA); BHI agar, 35-37 °C, 20 to 24 hours; unit assumed
Method: as §1, §2, §3

[8] = tested on: Streptococcus pyogenes 930; conditions: Streptococcus pyogenes 930 (organism code MM); BHI agar, 35-37 °C, 20 to 24 hours; unit assumed
Method: as §1, §2, §3

Escherichia coli JUHL = Escherichia coli JUHL (organism code QQ); BHI agar, 35-37 °C, 20 to 24 hours; unit assumed
Method: as §1, §2, §3

[9] = tested on: Staphylococcus epidermidis 3519; conditions: Staphylococcus epidermidis 3519 (organism code HH); BHI agar, 35-37 °C, 20 to 24 hours; unit assumed
Method: as §1, §2, §3

[10] = tested on: Streptococcus agalactiae CMX 508; conditions: Streptococcus agalactiae CMX 508 (organism code KK); BHI agar, 35-37 °C, 20 to 24 hours; unit assumed
Method: as §1, §2, §3

[11] = tested on: Staphylococcus aureus CMX 642A; conditions: Staphylococcus aureus CMX 642A (organism code DD); BHI agar, 35-37 °C, 20 to 24 hours; unit assumed
Method: as §1, §2, §3

[12] = tested on: Staphylococcus aureus 1775; conditions: Staphylococcus aureus 1775 (organism code GG); BHI agar, 35-37 °C, 20 to 24 hours; unit assumed
Method: as §1, §2, §3

[13] = tested on: Staphylococcus aureus A-5278; conditions: Staphylococcus aureus A-5278 (organism code CC); BHI agar, 35-37 °C, 20 to 24 hours; unit assumed
Method: as §1, §2, §3

[14] = tested on: Mycobacterium smegmatis ATCC 114; conditions: Mycobacterium smegmatis ATCC 114 (organism code UU); BHI agar, 35-37 °C, 20 to 24 hours; unit assumed
Method: as §1, §2, §3

[15] = tested on: Nocardia Asteroides ATCC9970; conditions: Nocardia Asteroides ATCC9970 (organism code VV); BHI agar, 35-37 °C, 20 to 24 hours; unit assumed
Method: as §1, §2, §3

[16] = tested on: Staphylococcus aureus NCTC10649M; conditions: Staphylococcus aureus NCTC10649M (organism code EE); BHI agar, 35-37 °C, 20 to 24 hours; unit assumed
Method: as §1, §2, §3

[17] = tested on: Streptococcus Pheumoniae GYR 1171; conditions: Streptococcus Pheumoniae GYR 1171 (organism code YY); BHI agar, 35-37 °C, 20 to 24 hours; unit assumed
Method: as §1, §2, §3

[18] = tested on: Streptococcus bovis A-5169; conditions: Streptococcus bovis A-5169 (organism code JJ); BHI agar, 35-37 °C, 20 to 24 hours; unit assumed
Method: as §1, §2, §3

[19] = tested on: Streptococcus Pheumoniae ATCC6303; conditions: Streptococcus Pheumoniae ATCC6303 (organism code XX); BHI agar, 35-37 °C, 20 to 24 hours; unit assumed
Method: as §1, §2, §3

[20] = tested on: Streptococcus Pheumoniae 5649; conditions: Streptococcus Pheumoniae 5649 (organism code ZZA); BHI agar, 35-37 °C, 20 to 24 hours; unit assumed
Method: as §1, §2, §3

Escherichia coli DC-2 = Escherichia coli DC-2 (organism code SS); BHI agar, 35-37 °C, 20 to 24 hours; unit assumed
Method: as §1, §2, §3

[21] = tested on: Micrococcus luteus ATCC 4698; conditions: Micrococcus luteus ATCC 4698 (organism code PP); BHI agar, 35-37 °C, 20 to 24 hours; unit assumed
Method: as §1, §2, §3

[22] = tested on: Streptococcus pyogenes PIU 2548; conditions: Streptococcus pyogenes PIU 2548 (organism code NN); BHI agar, 35-37 °C, 20 to 24 hours; unit assumed
Method: as §1, §2, §3

[23] = tested on: Streptococcus Pheumoniae 5979; conditions: Streptococcus Pheumoniae 5979 (organism code ZZ); BHI agar, 35-37 °C, 20 to 24 hours; unit assumed
Method: as §1, §2, §3

## CC[C@H]1OC(=O)[C@H](C)[C@@H](O[C@H]2C[C@@](C)(OC)[C@@H](O)[C@H](C)O2)[C@H](C)[C@@H](O[C@@H]2O[C@H](C)C[C@H](N(C)C)[C@H]2O)[C@](C)(O)C[C@@H](C)C(=O)[C@H](C)[C@@H](O)[C@]1(C)O [Ery. A, Erythromycin A, reference compound]
Candida albicans CCH 442
  MIC: > 100 µg/mL
[1]
  MIC: 0.39 µg/mL (≈ 0.531 µM)
[2]
  MIC: 0.05 µg/mL (≈ 0.0681 µM)
[3]
  MIC: 4 µg/mL (≈ 5.45 µM)
[4]
  MIC: 3.1 µg/mL (≈ 4.22 µM)
Escherichia coli SS
  MIC: 0.78 µg/mL (≈ 1.06 µM)
[5]
  MIC: 0.05 µg/mL (≈ 0.0681 µM)
[6]
  MIC: 0.05 µg/mL (≈ 0.0681 µM)
[7]
  MIC: 0.2 µg/mL (≈ 0.273 µM)
[8]
  MIC: > 100 µg/mL
Escherichia coli JUHL
  MIC: > 100 µg/mL
[9]
  MIC: 0.39 µg/mL (≈ 0.531 µM)
[10]
  MIC: 0.05 µg/mL (≈ 0.0681 µM)
[11]
  MIC: 0.39 µg/mL (≈ 0.531 µM)
[12]
  MIC: > 100 µg/mL
[13]
  MIC: > 100 µg/mL
[14]
  MIC: 3.1 µg/mL (≈ 4.22 µM)
[15]
  MIC: 0.1 µg/mL (≈ 0.136 µM)
[16]
  MIC: 0.39 µg/mL (≈ 0.531 µM)
[17]
  MIC: 0.06 µg/mL (≈ 0.0818 µM)
[18]
  MIC: 0.02 µg/mL (≈ 0.0273 µM)
[19]
  MIC: 0.06 µg/mL (≈ 0.0818 µM)
[20]
  MIC: 16 µg/mL (≈ 21.8 µM)
Escherichia coli DC-2
  MIC: > 100 µg/mL
[21]
  MIC: 0.2 µg/mL (≈ 0.273 µM)
[22]
  MIC: 6.2 µg/mL (≈ 8.45 µM)

## C#CCN(C)[C@H]1C[C@@H](C)O[C@@H](O[C@@H]2[C@@H](C)C(=O)[C@@H](C)C(=O)O[C@H](CC)[C@@]3(C)OC(=O)N[C@@H]3[C@@H](C)C(=O)[C@H](C)C[C@@]2(C)OCC=Cc2cnc3ccccc3c2)[C@@H]1O [Example 10, Compound of Formula (II); R is -CH2CH=CH-(3-quinolyl), R^p is H, W is absent, R^w is H, R^1 is CH2-C≡CH, R^2 is CH3-]
Candida albicans CCH 442
  MIC: > 100 µg/mL
[1]
  MIC: 0.2 µg/mL
[2]
  MIC: 0.01 µg/mL
[23]
  MIC: 32 µg/mL
[4]
  MIC: 0.39 µg/mL
Escherichia coli SS
  MIC: 1.56 µg/mL
[5]
  MIC: 0.1 µg/mL
[6]
  MIC: 0.05 µg/mL
[7]
  MIC: 0.2 µg/mL
[8]
  MIC: 6.2 µg/mL
Escherichia coli JUHL
  MIC: > 100 µg/mL
[9]
  MIC: 0.2 µg/mL
[10]
  MIC: 0.01 µg/mL
[11]
  MIC: 0.2 µg/mL
[12]
  MIC: > 100 µg/mL
[13]
  MIC: > 100 µg/mL
[14]
  MIC: 1.56 µg/mL
[15]
  MIC: 0.2 µg/mL
[16]
  MIC: 0.1 µg/mL
[17]
  MIC: 0.03 µg/mL
[18]
  MIC: 0.02 µg/mL
[19]
  MIC: 0.03 µg/mL
[20]
  MIC: 0.25 µg/mL
Escherichia coli DC-2
  MIC: > 100 µg/mL
[21]
  MIC: 0.39 µg/mL
[22]
  MIC: 0.39 µg/mL

## CC[C@H]1OC(=O)[C@H](C)C(=O)[C@H](C)[C@@H](O[C@@H]2O[C@H](C)C[C@H](N(C)C3CC3)[C@H]2O)[C@](C)(OCC=Cc2cnc3ccccc3c2)C[C@@H](C)C(=O)[C@H](C)[C@H]2NC(=O)O[C@@]21C [Example 13, Compound of Formula (II); R is -CH2CH=CH-(3-quinolyl), R^p is H, W is absent, R^w is H, R^1 is cyclopropyl, R^2 is CH3]
Candida albicans CCH 442
  MIC: 50 µg/mL
[1]
  MIC: 1.56 µg/mL
[2]
  MIC: 0.1 µg/mL
[23]
  MIC: 16 µg/mL
[4]
  MIC: 3.1 µg/mL
Escherichia coli SS
  MIC: 3.1 µg/mL
[5]
  MIC: 0.39 µg/mL
[6]
  MIC: 0.39 µg/mL
[7]
  MIC: 1.56 µg/mL
[8]
  MIC: > 100 µg/mL
Escherichia coli JUHL
  MIC: > 100 µg/mL
[9]
  MIC: 3.1 µg/mL
[10]
  MIC: 0.2 µg/mL
[11]
  MIC: 1.56 µg/mL
[12]
  MIC: > 100 µg/mL
[13]
  MIC: > 100 µg/mL
[14]
  MIC: 3.1 µg/mL
[15]
  MIC: 3.1 µg/mL
[16]
  MIC: 3.1 µg/mL
[17]
  MIC: 0.03 µg/mL
[18]
  MIC: 0.2 µg/mL
[19]
  MIC: 0.03 µg/mL
[20]
  MIC: 0.25 µg/mL
Escherichia coli DC-2
  MIC: > 100 µg/mL
[21]
  MIC: 0.78 µg/mL
[22]
  MIC: 0.39 µg/mL

## CC[C@H]1OC(=O)[C@H](C)C(=O)[C@H](C)[C@@H](O[C@@H]2O[C@H](C)C[C@H](N(C)Cc3cccnc3)[C@H]2O)[C@](C)(OCC=Cc2cnc3ccccc3c2)C[C@@H](C)C(=O)[C@H](C)[C@H]2NC(=O)O[C@@]21C [Example 21, Compound of Formula (II); R is -CH2CH=CH-(3-quinolyl), R^p is H, W is absent, R^w is H, R^1 is CH2-(3-pyridyl), R^2 is CH3]
[3]
  MIC: 4 µg/mL

## CC[C@H]1OC(=O)[C@H](C)C(=O)[C@H](C)[C@@H](O[C@@H]2O[C@H](C)C[C@H](N(C)Cc3cccc(O)c3)[C@H]2O)[C@](C)(OCC=Cc2cnc3ccccc3c2)C[C@@H](C)C(=O)[C@H](C)[C@H]2NC(=O)O[C@@]21C [Example 22, Compound of Formula (II); R is -CH2CH=CH-(3-quinolyl), R^p is H, W is absent, R^w is H, R^1 is CH2-(3-hydroxyphenyl), R^2 is CH3]
Candida albicans CCH 442
  MIC: > 100 µg/mL
[1]
  MIC: 0.39 µg/mL
[2]
  MIC: 0.1 µg/mL
[3]
  MIC: 4 µg/mL
[4]
  MIC: 0.39 µg/mL
Escherichia coli SS
  MIC: 0.39 µg/mL
[5]
  MIC: 0.1 µg/mL
[6]
  MIC: 0.1 µg/mL
[7]
  MIC: 0.2 µg/mL
[8]
  MIC: 3.1 µg/mL
Escherichia coli JUHL
  MIC: > 100 µg/mL
[9]
  MIC: 0.39 µg/mL
[10]
  MIC: 0.1 µg/mL
[11]
  MIC: 0.39 µg/mL
[12]
  MIC: > 100 µg/mL
[13]
  MIC: > 100 µg/mL
[14]
  MIC: 0.78 µg/mL
[15]
  MIC: 0.2 µg/mL
[16]
  MIC: 0.39 µg/mL
[17]
  MIC: 0.03 µg/mL
[18]
  MIC: 0.1 µg/mL
[19]
  MIC: 0.03 µg/mL
[20]
  MIC: 0.25 µg/mL
Escherichia coli DC-2
  MIC: > 100 µg/mL
[21]
  MIC: 0.1 µg/mL
[22]
  MIC: 0.1 µg/mL

From patent EP1025114B1, “3'-N-MODIFIED 6-O-SUBSTITUTED ERYTHROMYCIN KETOLIDE DERIVATIVES HAVING ANTIBACTERIAL ACTIVITY” (priority 1997, dated 1999)
